This passage reports EC50 results from patent US20230045421A1 (priority 2018, published 2023).

The subject of the assay is HBV rcDNA. As to the kind of experiment: HepDE19 assay with bDNA quantitation of HBV rcDNA. Format: cell-based, hepatitis B virus. The method in brief: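 Compounds, top concentration 25 μM in 8-point duplicate series, were applied to Tet-free HepDE19 cultures for 7 days. Branched-DNA quantitation of HBV rcDNA against untreated wells gave EC50 and EC90 by 4-parameter fit. Viability (CC50) came from ATP luminescence on parallel plates incubated 4 days.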

The mark [1] stands for this setting: HepDE19 assay, inhibition of formation of relaxed circular DNA (rcDNA), bDNA quantitation, read-out: DE-19bDNA EC50.
[2] abbreviates: read-out: DE-19bDNA EC50, HepDE19 assay, inhibition of formation of relaxed circular DNA (rcDNA), bDNA quantitation.
Where [3] appears, read: HepDE19 assay, inhibition of formation of rcDNA, read-out: DE-19bDNA EC50.
Where [4] appears, read: Hepatitis B virus, HepDE19, HepDE19 assay, inhibition of formation of rcDNA, read-out: DE-19bDNA EC50.
The mark [5] stands for this setting: Hepatitis B virus, HepDE19, HepDE19 assay, inhibition of formation of relaxed circular DNA (rcDNA), bDNA quantitation, read-out: DE-19bDNA EC50.

Molecules are shown by their SMILES. Read-outs that look alike come from different tables or passages of the source.

As for `CC(c1c[nH]c(=O)c2cc(F)c(F)cc12)N(C)C(=O)NCc1cc(F)c(F)c(F)c1` (single isomer, unassigned) [Compound 482, 1-(1-(6,7-Difluoro-1-oxo-1,2-dihydroisoquinolin-4-yl)ethyl)-1-methyl-3-(3,4,5-trifluorobenzyl)urea], the EC50 (as a rule, the concentration needed to bring the measured effect to its halfway point) under setting [1] came to 11 µM.

Regarding `CCN(C(=O)Nc1ccccc1)C(C)c1c[nH]c(=O)c2cc(F)c(F)cc12` (single isomer, unassigned) [Compound 404, 1-(1-(6,7-Difluoro-1-oxo-1,2-dihydroisoquinolin-4-yl)ethyl)-1-ethyl-3-phenylurea], the EC50 under setting [2] came out at 18 µM.

`Cc1cc(NC(=O)N(C)C(C)c2c[nH]c(=O)c3c(F)c(F)ccc23)ccc1F` (single isomer, unassigned) [Compound 440, 1-(1-(7,8-Difluoro-1-oxo-1,2-dihydroisoquinolin-4-yl)ethyl)-3-(4-fluoro-3-methylphenyl)-1-methylurea]: the 50% effective concentration (EC50) under setting [1] is 0.54 µM.

For `CC(c1c[nH]c(=O)c2c(Cl)cccc12)N(C)C(=O)Nc1ccc(F)c(Cl)c1` (single isomer, unassigned) [Compound 167, 1-(1-(8-Chloro-1-oxo-1,2-dihydroisoquinolin-4-yl)ethyl)-3-(3-chloro-4-fluorophenyl)-1-methylurea], the EC50 under setting [3] is 2.4 µM.

Consider `CC(c1c[nH]c(=O)c2ccccc12)N(CC1CCOCC1)C(=O)Nc1ccc(F)c(Cl)c1` (single isomer, unassigned) [Compound 142, 3-(3-Chloro-4-fluorophenyl)-1-(1-(1-oxo-1,2-dihydroisoquinolin-4-yl)ethyl)-1-((tetrahydro-2H-pyran-4-yl)methyl)urea], for which, under setting [3], the EC50 is 0.04 µM.

For `CC(c1c[nH]c(=O)c2ccccc12)N(Cc1ccncc1)C(=O)Nc1ccc(F)c(Cl)c1` (single isomer, unassigned) [Compound 308, 3-(3-Chloro-4-fluorophenyl)-1-(1-(1-oxo-1,2-dihydroisoquinolin-4-yl)ethyl)-1-(pyridin-4-ylmethyl) urea], the 50% effective concentration (EC50) under setting [1] is 0.13 µM.

As for `CC(C)CN(C(=O)Nc1ccc(F)c(Cl)c1)C(C)c1c[nH]c(=O)c2c(F)c(F)ccc12` (single isomer, unassigned) [Compound 339, 3-(3-Chloro-4-fluorophenyl)-1-(1-(7,8-difluoro-1-oxo-1,2-dihydroisoquinolin-4-yl)ethyl)-1-isobutylurea], the EC50 under setting [1] is 0.005 µM.

With `CC(c1c[nH]c(=O)c2ccccc12)N(C[C@H](C)O)C(=O)Nc1ccc(F)c(Cl)c1` (single isomer, unassigned) [Compound 217], the EC50 under setting [3] worked out at 8.2 µM.

As for `CCN(C(=O)Nc1ccc(F)c(Cl)c1)C(C)c1c[nH]c(=O)c2cnccc12` (racemic) [Compound 102, 3-(3-Chloro-4-fluorophenyl)-1-ethyl-1-(1-(1-oxo-1,2-dihydro-2,7-naphthyridin-4-yl)ethyl)urea], the EC50 under setting [4] was 0.1 µM.

`CCN(C(=O)Nc1ccc(F)c(Cl)c1)C(c1c[nH]c(=O)c2ccccc12)C1CC1` (single isomer, unassigned) [Compound 46, 3-(3-Chloro-4-fluorophenyl)-1-(cyclopropyl(1-oxo-1,2-dihydroisoquinolin-4-yl)methyl)-1-ethylurea]: the EC50 (read-out: DE-19bDNA EC50, HepDE19 assay, inhibition of formation of rcDNA) was 23 µM.

For the compound `COCCCN(C(=O)Nc1ccc(F)c(Cl)c1)C(C)c1cnc(OC)c2ccccc12` (single isomer, unassigned) [Compound 82, 3-(3-Chloro-4-fluorophenyl)-1-(1-(1-methoxyisoquinolin-4-yl)ethyl)-1-(3-methoxypropyl)urea], the EC50 under setting [3] is 0.32 µM.

Take `CC(c1c[nH]c(=O)c2ccccc12)N(CC1CCOCC1)C(=O)Nc1ccc(F)c(Cl)c1` (racemic) [Compound 134, 3-(3-chloro-4-fluorophenyl)-1-(1-(1-oxo-1,2-dihydroisoquinolin-4-yl)ethyl)-1-((tetrahydro-2H-pyran-4-yl)methyl)urea]: under setting [4], the EC50 is 0.07 µM.

Turning to `CC(c1c[nH]c(=O)c2ccccc12)N(CCS(N)(=O)=O)C(=O)Nc1ccc(F)c(Cl)c1` (single isomer, unassigned) [Compound 120, 2-(3-(3-Chloro-4-fluorophenyl)-1-(1-(1-oxo-1,2-dihydroisoquinolin-4-yl)ethyl)ureido) ethanesulfonamide], the EC50 under setting [3] came out at 18 µM.

In the case of `COCCN(Cc1cnc(OC)c2ccccc12)C(=O)Nc1ccc(F)c(Cl)c1` [Compound 41, 3-(3-Chloro-4-fluorophenyl)-1-(2-methoxyethyl)-1-((1-methoxyisoquinolin-4-yl)methyl)urea], the EC50 under setting [4] amounted to 3.8 µM.

With `CC(c1c[nH]c(=O)c2ccccc12)N(CCS(C)(=O)=O)C(=O)Nc1ccc(F)c(Cl)c1` (single isomer, unassigned) [Compound 108, 3-(3-Chloro-4-fluorophenyl)-1-(2-(methylsulfonyl)ethyl)-1-(1-(1-oxo-1,2-dihydroisoquinolin-4-yl)ethyl)urea], the half-maximal effective concentration (EC50) under setting [3] turned out to be 0.05 µM.

For the compound `CCN(C(=O)Nc1ccccc1)C(C)c1c[nH]c(=O)c2cc(F)c(F)cc12` (single isomer, unassigned) [Compound 405, 1-(1-(6,7-Difluoro-1-oxo-1,2-dihydroisoquinolin-4-yl)ethyl)-1-ethyl-3-phenylurea], under setting [2], the EC50 was 0.058 µM.

As for `C[C@H](c1c[nH]c(=O)c2ccccc12)N(C)C(=O)Nc1ccnc(C(F)(F)F)c1` (single isomer, unassigned) [Compound 95], under “Hepatitis B virus, HepDE19, read-out: DE-19bDNA EC50 (μM), HepDE19 assay, inhibition of formation of rcDNA”, the EC50 was determined as 1.1 µM.

As to `CC(c1cnc(NCCN)c2ccccc12)N(C)C(=O)Nc1ccc(F)c(Cl)c1` (single isomer, unassigned) [Compound 249, 1-(1-(1-((2-Aminoethyl)amino)isoquinolin-4-yl)ethyl)-3-(3-chloro-4-fluorophenyl)-1-methylurea], the EC50 under setting [3] was 14 µM.

In the case of `CCN(Cc1cnc(OCCO)c2ccccc12)C(=O)Nc1ccc(F)c(Cl)c1` [Compound 29, 3-(3-Chloro-4-fluorophenyl)-1-ethyl-1-((1-(2-hydroxyethoxy)isoquinolin-4-yl)methyl)urea], under setting [4], the EC50 is 4.2 µM.

Regarding `CC(c1c[nH]c(=O)c2c(F)c(F)ccc12)N(C)C(=O)Nc1cc(F)c(F)c(F)c1` (single isomer, unassigned) [Compound 442, 1-(1-(7,8-Difluoro-1-oxo-1,2-dihydroisoquinolin-4-yl)ethyl)-1-methyl-3-(3,4,5-trifluorophenyl)urea], the EC50 under setting [1] stood at 4.7 µM.

On to `CC(c1c[nH]c(=O)c2cc(F)c(F)cc12)N(C)C(=O)Nc1cccc(F)c1` (single isomer, unassigned) [Compound 410, 1-(1-(6,7-Difluoro-1-oxo-1,2-dihydroisoquinolin-4-yl)ethyl)-3-(3-fluorophenyl)-1-methylurea], for which, under setting [2], the EC50 was 2.8 µM.

With `CCN(C(=O)Nc1ccc(F)c(Cl)c1)C(C)c1c[nH]c(=O)c2cc(F)c(F)cc12` (single isomer, unassigned) [Compound 406, 3-(3-Chloro-4-fluorophenyl)-1-(1-(6,7-difluoro-1-oxo-1,2-dihydroisoquinolin-4-yl)ethyl)-1-ethylurea], the EC50 under setting [1] is 2.1 µM.

Consider `CNc1ncc(C(C)N(C)C(=O)Nc2ccc(F)c(Cl)c2)c2ccccc12` (single isomer, unassigned) [Compound 232, 3-(3-Chloro-4-fluorophenyl)-1-methyl-1-(1-(1-(methylamino)isoquinolin-4-yl)ethyl)urea], for which, under setting [3], the EC50 worked out at 0.12 µM.

Regarding `CC(c1c[nH]c(=O)c2cc(F)c(F)cc12)N(CCCO)C(=O)Nc1ccc(F)c(Cl)c1` (single isomer, unassigned) [Compound 289, 3-(3-Chloro-4-fluorophenyl)-1-(1-(6,7-difluoro-1-oxo-1,2-dihydroisoquinolin-4-yl)ethyl)-1-(3-hydroxypropyl)urea], the EC50 under setting [1] stood at 0.37 µM.

For `CC(c1c[nH]c(=O)c2cc(F)c(F)cc12)N(C)C(=O)NCc1ccc(F)cc1` (single isomer, unassigned) [Compound 478, 1-(1-(6,7-Difluoro-1-oxo-1,2-dihydroisoquinolin-4-yl)ethyl)-3-(4-fluorobenzyl)-1-methylurea], under setting [5], the concentration for a half-maximal effect (EC50) was 1 µM.

Consider `CC(c1c[nH]c(=O)c2ccccc12)N(CC1CCN(S(C)(=O)=O)CC1)C(=O)Nc1ccc(F)c(Cl)c1` (single isomer, unassigned) [Compound 204, 3-(3-Chloro-4-fluorophenyl)-1-((1-(methylsulfonyl)piperidin-4-yl)methyl)-1-(1-(1-oxo-1,2-dihydroisoquinolin-4-yl)ethyl)urea], for which, under setting [3], the EC50 was 0.06 µM.

Turning to `CC(c1c[nH]c(=O)c2ccccc12)N(CCCN)C(=O)Nc1ccc(F)c(Cl)c1` (racemic) [Compound 157, 1-(3-aminopropyl)-3-(3-chloro-4-fluorophenyl)-1-(1-(1-oxo-1,2-dihydroisoquinolin-4-yl)ethyl)urea], the EC50 under setting [4] worked out at 23 µM.

`CC(c1cnc(C(=O)O)c2ccccc12)N(C)C(=O)Nc1ccc(F)c(Cl)c1` (single isomer, unassigned) [Compound 325, 4-(1-(3-(3-Chloro-4-fluorophenyl)-1-methylureido)ethyl)isoquinoline-1-carboxylic acid]: the EC50 under setting [5] worked out at 4.2 µM.

For `Cc1cc(NC(=O)NCc2c[nH]c(=O)c3ccccc23)ccc1F` [Compound 4, 1-(4-Fluoro-3-methylphenyl)-3-((1-oxo-1,2-dihydroisoquinolin-4-yl)methyl)urea], under setting [4], the EC50 was 4.8 µM.
